Molecules are shown by their SMILES.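 Growth conditions: 96-well plates. Treatment: test compound, 48 hours, 5 concentrations. Analysis: linear interpolation between bracketing concentrations; unreached endpoints set to highest concentration. TGI: total growth inhibition.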

Some test systems named below: RXF-631 renal; HOP-18 NSCLC; M19-MEL melanoma; 786-0 renal.
Experiment in all cases: growth of human tumour cells (NCI), 48 h

`COc1cccc(NC(=O)CC(=O)NNCC(=O)Nc2nnc(-c3ccc(N(CCC#N)S(=O)(=O)c4ccccc4)cc3)s2)c1`: the TGI in the experiment with RXF-631 renal, in the experiment on HOP-18 NSCLC and in the experiment on M19-MEL melanoma was above 100 µM in each case.
The compound `CCNc1ncnc2c1nnn2CC` gave a TGI in the experiment on 786-0 renal above 100 µM.
As to `COC(=O)C1=C(C)N(NC(=O)c2ccccc2)C2(O)CCCC(=O)C12C` (configuration not stated), the TGI with RXF-631 renal is above 100 µM.
`CN(/N=N/c1nc[nH]c1C(N)=O)C1CCCCC1` yielded a TGI in the experiment on M19-MEL melanoma above 100 µM.
With `COc1ccc2c(c1OC)C(=O)O[C@@H]2[C@H]1c2cc3c(cc2CCN1C)OCO3`, in the experiment with 786-0 renal, the TGI is above 100 µM.

For the origin of these results see PubChem BioAssay (NCI).
